Experimental data published in patent publication US20250235543A1, “MODIFIED PROTEINS AND PROTEIN DEGRADERS” (Cullgen (Shanghai), Inc., priority 2021, published 2025).

Experiments:
[1] = target: T1, CDK4 (Homo sapiens, UniProt P11802); assay: CDK4 percentage degradation in Calu-1 cells (immunoblotting); type: cell-based; settings: Calu-1 cells, 200 nM, 16 hours; read-out: CDK4 Degradation (200 nM)
T1 construct: endogenous in cells; host or cells: Calu-1
Outline: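 Cultured cells were rinsed once in cold PBS and lysed in cold RIPA buffer containing protease and phosphatase inhibitors, with gentle agitation at 4° C. for 30 min. Lysates were centrifuged at 13,000 rpm for 10 min at 4° C., and protein was quantified by BCA. Samples were then separated by SDS-PAGE, detected with ECL, and the CDK4 bands quantified in Image Lab.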

[2] = tested on: cyclin D1; assay: Cyclin D1 percentage degradation in Calu-1 cells (immunoblotting); type: cell-based; settings: 200 nM, 16 hours
Outline: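 Cells were rinsed once in cold PBS and lysed in cold RIPA buffer containing protease and phosphatase inhibitors, with gentle agitation at 4° C. for 30 min. Lysates were spun at 13,000 rpm for 10 min at 4° C., protein was measured by BCA, and samples were boiled in Laemmli buffer at 99° C. for 5 min before SDS-PAGE immunoblotting.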

T1 sequence (P11802 2-303 limits assumed): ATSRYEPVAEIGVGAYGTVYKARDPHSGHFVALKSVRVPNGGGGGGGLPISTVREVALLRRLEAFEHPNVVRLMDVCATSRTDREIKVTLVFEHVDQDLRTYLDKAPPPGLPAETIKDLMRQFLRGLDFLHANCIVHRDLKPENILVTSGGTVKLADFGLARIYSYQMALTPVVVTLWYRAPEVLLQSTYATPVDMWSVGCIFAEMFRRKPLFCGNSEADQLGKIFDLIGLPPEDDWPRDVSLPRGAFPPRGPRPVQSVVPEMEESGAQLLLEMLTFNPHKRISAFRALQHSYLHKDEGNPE
T1 sequence (P24385 whole entry partner): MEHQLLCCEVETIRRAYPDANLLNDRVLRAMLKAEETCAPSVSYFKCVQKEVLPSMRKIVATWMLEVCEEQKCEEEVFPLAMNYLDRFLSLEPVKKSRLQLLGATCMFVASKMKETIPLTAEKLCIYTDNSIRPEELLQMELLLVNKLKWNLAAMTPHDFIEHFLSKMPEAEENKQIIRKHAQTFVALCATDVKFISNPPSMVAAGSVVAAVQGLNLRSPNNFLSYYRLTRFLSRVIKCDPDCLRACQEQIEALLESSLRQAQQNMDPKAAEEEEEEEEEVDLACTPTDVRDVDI
T1 sequence (Q16531 2-1140 limits assumed, further chain): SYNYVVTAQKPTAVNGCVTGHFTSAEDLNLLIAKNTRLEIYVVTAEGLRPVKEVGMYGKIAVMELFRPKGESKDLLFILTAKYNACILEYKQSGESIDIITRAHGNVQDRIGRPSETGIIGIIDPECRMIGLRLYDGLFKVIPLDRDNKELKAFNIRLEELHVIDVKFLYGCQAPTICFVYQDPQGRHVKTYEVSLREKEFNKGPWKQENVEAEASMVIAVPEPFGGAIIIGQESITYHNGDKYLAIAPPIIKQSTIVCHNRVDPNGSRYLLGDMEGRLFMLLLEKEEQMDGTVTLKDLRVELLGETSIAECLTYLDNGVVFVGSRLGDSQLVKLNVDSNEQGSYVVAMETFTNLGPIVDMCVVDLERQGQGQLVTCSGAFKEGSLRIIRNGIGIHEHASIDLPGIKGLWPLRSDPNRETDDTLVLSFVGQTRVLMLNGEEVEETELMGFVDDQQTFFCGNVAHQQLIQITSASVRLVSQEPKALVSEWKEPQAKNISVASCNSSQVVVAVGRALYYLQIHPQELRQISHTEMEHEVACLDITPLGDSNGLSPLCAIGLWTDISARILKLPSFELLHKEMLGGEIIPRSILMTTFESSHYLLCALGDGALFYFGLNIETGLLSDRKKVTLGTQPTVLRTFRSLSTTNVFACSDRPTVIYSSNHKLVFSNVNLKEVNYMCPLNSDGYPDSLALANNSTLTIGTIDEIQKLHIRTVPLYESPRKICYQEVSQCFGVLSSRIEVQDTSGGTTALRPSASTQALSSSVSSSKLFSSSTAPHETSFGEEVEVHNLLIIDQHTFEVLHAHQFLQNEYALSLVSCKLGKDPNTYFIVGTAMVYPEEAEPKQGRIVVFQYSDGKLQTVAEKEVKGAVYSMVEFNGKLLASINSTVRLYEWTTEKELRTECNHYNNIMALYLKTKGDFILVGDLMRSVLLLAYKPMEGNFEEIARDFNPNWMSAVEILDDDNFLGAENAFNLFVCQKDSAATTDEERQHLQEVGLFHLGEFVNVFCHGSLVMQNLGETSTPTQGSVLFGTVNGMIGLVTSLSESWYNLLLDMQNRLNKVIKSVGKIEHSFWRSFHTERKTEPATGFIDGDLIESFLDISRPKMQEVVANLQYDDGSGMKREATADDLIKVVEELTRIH

Structure (SMILES)	inhibition at 0.2 µM [1] [%]	CyclinD1 Degradation (200 nM) [2]
COc1ccc(NC(=O)c2cccc(NCCOCCOCCNC(=O)CN3CCN(c4ccc(Nc5ncc6c(C)c(C(C)=O)c(=O)n(C7CCCC7)c6n5)nc4)CC3)c2C)nn1 [CPD-341, 3-((2-(2-(2-(2-(4-(6-((6-Acetyl-8-cyclopentyl-5-methyl-7-oxo-7,8-dihydropyrido[2,3-d]pyrimidin-2-yl)amino)pyridin-3-yl)piperazin-1-yl)acetamido)ethoxy)ethoxy)ethyl)amino)-N-(6-methoxypyridazin-3-yl)-2-methylbenzamide]	< 30	D (protein percentage degradation <30%)
CC(=O)c1c(C)c2cnc(Nc3ccc(N4CCN(CC(=O)NCCOCCOCCCNc5ccccc5C(=O)Nc5nc(C)c(C)s5)CC4)cn3)nc2n(C2CCCC2)c1=O [CPD-267, 2-((3-(2-(2-(2-(4-(6-((6-Acetyl-8-cyclopentyl-5-methyl-7-oxo-7,8-dihydropyrido[2,3-d]pyrimidin-2-yl)amino)pyridin-3-yl)piperazin-1-yl)acetamido)ethoxy)ethoxy)propyl)amino)-N-(4,5-dimethylthiazol-2-yl)benzamide]	50 to 80	A (protein percentage degradation >=80%)
COc1ccc(NC(=O)c2ccccc2NC(=O)CCOCCN2CCC(NC(=O)CN3CCN(c4ccc(Nc5ncc6c(C)c(C(C)=O)c(=O)n(C7CCCC7)c6n5)nc4)CC3)CC2)nn1 [CPD-348, 2-(3-(2-(4-(2-(4-(6-((6-Acetyl-8-cyclopentyl-5-methyl-7-oxo-7,8-dihydropyrido[2,3-d]pyrimidin-2-yl)amino)pyridin-3-yl)piperazin-1-yl)acetamido)piperidin-1-yl)ethoxy)propanamido)-N-(6-methoxypyridazin-3-yl)benzamide]	< 30	D (protein percentage degradation <30%)
CC(=O)c1c(C)c2cnc(Nc3ccc(N4CCN(CC(=O)NCCOCCOCCC(=O)Nc5ccccc5C(=O)Nc5nc(C6CC6)ns5)CC4)cn3)nc2n(C2CCCC2)c1=O [CPD-059, 2-(3-(2-(2-(2-(4-(6-((6-Acetyl-8-cyclopentyl-5-methyl-7-oxo-7,8-dihydropyrido[2,3-d]pyrimidin-2-yl)amino)pyridin-3-yl)piperazin-1-yl)acetamido)ethoxy)ethoxy)propanamido)-N-(3-cyclopropyl-1,2,4-thiadiazol-5-yl)benzamide]	< 30	D (protein percentage degradation <30%)

Further lines, with some results ahead:

inhibition at 0.2 µM [1] [%]	Structure (SMILES)	CyclinD1 Degradation (200 nM) [2]
< 30	CC(=O)c1c(C)c2cnc(Nc3ccc(N4CCN(CC(=O)NCCOCCOCCC(=O)Nc5c(C(=O)Nc6ccc(C)cn6)ccc6ncccc56)CC4)cn3)nc2n(C2CCCC2)c1=O [CPD-362, 5-(3-(2-(2-(2-(4-(6-((6-Acetyl-8-cyclopentyl-5-methyl-7-oxo-7,8-dihydropyrido[2,3-d]pyrimidin-2-yl)amino)pyridin-3-yl)piperazin-1-yl)acetamido)ethoxy)ethoxy)propanamido)-N-(5-methylpyridin-2-yl)quinoline-6-carboxamide]	D (protein percentage degradation <30%)
50 to 80	CC(=O)c1c(C)c2cnc(Nc3ccc(N4CCN(CC(=O)NCCCCCNc5cc(F)ccc5C(=O)Nc5ccc(N(C)C)nn5)CC4)cn3)nc2n(C2CCCC2)c1=O [CPD-372, 2-((5-(2-(4-(6-((6-Acetyl-8-cyclopentyl-5-methyl-7-oxo-7,8-dihydropyrido[2,3-d]pyrimidin-2-yl)amino)pyridin-3-yl)piperazin-1-yl)acetamido)pentyl)amino)-N-(6-(dimethylamino)pyridazin-3-yl)-4-fluorobenzamide]	A (protein percentage degradation >=80%)
